Consider 13 compounds from patent publication US9540397B2, “BACE1 inhibitors” (Hoffmann-La Roche Inc., priority 2014, dated 2017).

Test [1] relates to Aβ40 in brain of wild-type mice. In words: Lowering of Aβ40 in brain of wild-type mice. The test is classed as in vivo. The following applies: Mus musculus, po; female C57Bl/6J mice, 30 mg/kg per os, 4 h; brain Aβ40 related to the value in the vehicle group; read-out: Aβ40 (wt mice, brain). As to the method: Lowering of Aβ40 in Brain of Wild-Type Mice:
Animals and Housing Conditions.
Animals were maintained in a 12/12 h light/dark cycle, with lights starting at 6 a.m., and experiments were conducted during the light phase. Animal housing and experimental procedures were in line with ethical and legal guidelines and were authorized by local veterinary authorities.
Experiment. Female C57Bl/6J mice were treated with a dose of 30 mg/kg of the compounds, 3-4 animals per treatment group. The test compound was dissolved in 5% EtOH, 10% Solutol, and was applied per os at 10 mL/kg. After 4 h, the animals were sacrificed and brain and plasma were collected. The brain was cut into halves and immediately frozen on dry ice. Brain was used for measurement of Aβ40 and plasma was used for determination of compound exposure. […] Brain tissue was homogenized in 2% DEA buffer in a Roche MagnaLyser (20″, 4000 rpm) and subsequently centrifuged for 1 h at 100000 g. DEA was reduced to 0.2% in 50 mM NaCl and one-half of the DEA lysate was passed over an Oasis Solid phase extraction plate (Waters; cat. no. 186000679), which had been activated with MeOH and equilibrated in dH2O (1 mL each). After washes in 10% and 30% MeOH (1 mL each), the Aβ-peptides were eluted in 0.8 mL of 2% NH4OH in 90% MeOH. The eluate was dried over a N2 flow, and the dried sample was reconstituted in 30 μL of AlphaLISA assay buffer. Aβ40 was determined by an AlphaLISA assay (Perkin-Elmer). In a white 96-well, half area microplate (Perkin-Elmer cat. no. 6005561), 20 μL of the reconstituted sample were mixed with 5 μL of biotinylated BAP-24 (specific for C-terminus of Aβ40) (Brockhaus, M.; Grunberg, J.; Rohrig, S.; Loetscher, H.; Wittenburg, N.; Baumeister, R.; Jacobsen, H.; Haass, C. Caspasemediated cleavage is not required for the activity of presenilins in amyloidogenesis and NOTCH signaling. NeuroReport 1998, 9, 1481-1486.) stock=4.4 mg/mL, f.c.5.5 μg/mL), and 5 μL 252Q6 acceptor beads (252Q6 antibody, Invitrogen AMB0062) had been previously conjugated with AlphaLISA Acceptor beads (Perkin-Elmer cat. no. 6772002); final dilution 1:500). The mix was incubated for 1 h at RT in the dark. Then 20 μL of Streptavin-coated Donor Beads (Perkin-Elmer cat. no. 6760002, final dilution 1:125) were added and this final mix was incubated in the dark for another 30 min at RT before RFU was measured in an AlphaScreen Reader (Perkin-Elmer Envision 2104). The value obtained for Aβ40 in the treated animals was related to the value in the vehicle group and is given in %. Alternatively a commercial ELISA was used for Aβ40 determination (Wako ELISA: (“Human/Rat β Amyloid (40) ELISA kit Wako II”; cat nr. 294-64701) following the manufacture's instruction. Also here the Aβ-lowering efficacy was calculated as percentage of the vehicle group.

For a further test, the target named is T1, BACE1 (Homo sapiens, UniProt P56817).
T1 construct: endogenous in cells; host or cells: HEK293 APP cells
In words: Cellular Aβ-lowering assay (Abeta 40 AlphaLISA, HEK293 APP cells). The following applies: 18-20 hrs incubation, Aβ40 in culture supernatant, read-out: BACE1 cell act. Aβ40 IC50. In kind it is cell-based. The essentials: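 APP-expressing HEK293 cells exposed to compounds for 18-20 h at 37° C. (1% DMSO final). Secreted Aβ1-40 in supernatant measured by AlphaLISA (615 nm emission), expressed as percent of DMSO-only signal, and IC50 fitted.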

Structures are written as SMILES. pIC50: −log10 of the molar value.

T1 sequence (P56817 46-501): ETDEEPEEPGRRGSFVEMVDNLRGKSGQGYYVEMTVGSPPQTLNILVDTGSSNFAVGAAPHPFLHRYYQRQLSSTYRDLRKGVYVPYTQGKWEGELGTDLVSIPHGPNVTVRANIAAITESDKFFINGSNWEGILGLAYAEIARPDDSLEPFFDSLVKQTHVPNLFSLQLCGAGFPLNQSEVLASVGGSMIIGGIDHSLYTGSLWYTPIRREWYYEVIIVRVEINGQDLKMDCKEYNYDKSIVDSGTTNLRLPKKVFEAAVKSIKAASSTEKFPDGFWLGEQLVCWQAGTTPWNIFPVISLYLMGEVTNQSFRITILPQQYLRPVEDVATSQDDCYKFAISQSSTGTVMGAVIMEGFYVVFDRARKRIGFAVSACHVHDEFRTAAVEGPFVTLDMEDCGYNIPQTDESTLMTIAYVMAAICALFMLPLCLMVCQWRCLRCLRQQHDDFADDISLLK

The term pIC50 denotes −log10 of the IC50, conventionally taken in molar units. `CC1(C)C(N)=N[C@](C)(c2nc(NC(=O)c3ccc(F)cn3)ccc2F)[C@H]2CC(F)(F)CN=[S@@]21=O` [Example 33AA, N-(6-((4aR,5R,9R)-7-amino-3,3-difluoro-5,8,8-trimethyl-9-oxido-2,3,4,4a,5,8-hexahydro-[1,4]thiazino[2,1-f][1,2]thiazin-5-yl)-5-fluoropyridin-2-yl)-5-fluoropicolinamide]: the response vs control in vivo at 30 mg/kg in test [1] came to 83%. Moreover, the pIC50 at BACE1 was 7.05.
The corresponding values for `CC1(C)C(N)=N[C@](C)(c2nc(NC(=O)c3ccc(C#N)cn3)ccc2F)[C@H]2CC(F)(F)CN=[S@@]21=O` [Example 34AA, N-(6-((4aR,5R,9R)-7-amino-3,3-difluoro-5,8,8-trimethyl-9-oxido-2,3,4,4a,5,8-hexahydro-[1,4]thiazino[2,1-f][1,2]thiazin-5-yl)-5-fluoropyridin-2-yl)-5-cyanopicolinamide] are 113% and 8.01.
The corresponding values for `CC1(C)C(N)=N[C@](C)(c2nc(NC(=O)c3ccc(OC(F)F)cn3)ccc2F)[C@H]2CC(F)(F)CN=[S@@]21=O` [Example 35AA, N-(6-((4aR,5R,9R)-7-amino-3,3-difluoro-5,8,8-trimethyl-9-oxido-2,3,4,4a,5,8-hexahydro-[1,4]thiazino[2,1-f][1,2]thiazin-5-yl)-5-fluoropyridin-2-yl)-5-(difluoromethoxy)picolinamide] are 101% and 7.06.
The corresponding values for `CC1(C)C(N)=N[C@](C)(c2nc(NC(=O)c3ccc(OCC(F)(F)C(F)F)cn3)ccc2F)[C@H]2CC(F)(F)CN=[S@@]21=O` [Example 36AA, N-(6-((4aR,5R,9R)-7-amino-3,3-difluoro-5,8,8-trimethyl-9-oxido-2,3,4,4a,5,8-hexahydro-[1,4]thiazino[2,1-f][1,2]thiazin-5-yl)-5-fluoropyridin-2-yl)-5-(2,2,3,3-tetrafluoropropoxy)-picolinamide] are 84% and 6.38.
On to `CC1(C)C(N)=N[C@](C)(c2nc(NC(=O)c3ncc(C#N)cc3Cl)ccc2F)[C@H]2CC(F)(F)CN=[S@@]21=O` [Example 37AA, N-(6-((4aR,5R,9R)-7-amino-3,3-difluoro-5,8,8-trimethyl-9-oxido-2,3,4,4a,5,8-hexahydro-[1,4]thiazino[2,1-f][1,2]thiazin-5-yl)-5-fluoropyridin-2-yl)-3-chloro-5-cyanopicolinamide], for which, in test [1], the response vs control in vivo at 30 mg/kg came out at 73%. In addition, the pIC50 on BACE1 is 8.80.
For the compound `CC1(C)C(N)=N[C@](C)(c2nc(NC(=O)c3ncc(Cl)cc3Cl)ccc2F)[C@H]2CC(F)(F)CN=[S@@]21=O` [Example 40AA, N-(6-((4aR,5R,9R)-7-amino-3,3-difluoro-5,8,8-trimethyl-9-oxido-2,3,4,4a,5,8-hexahydro-[1,4]thiazino[2,1-f][1,2]thiazin-5-yl)-5-fluoropyridin-2-yl)-3,5-dichloropicolinamide], the response vs control in vivo at 30 mg/kg in test [1] amounted to 77%. In addition, on BACE1, the pIC50 was 8.31.
The corresponding values for `CC1(C)C(N)=N[C@](C)(c2nc(NC(=O)c3ncc(F)cc3Cl)ccc2F)[C@H]2CC(F)(F)CN=[S@@]21=O` [Example 41AA, N-(6-((4aR,5R,9R)-7-amino-3,3-difluoro-5,8,8-trimethyl-9-oxido-2,3,4,4a,5,8-hexahydro-[1,4]thiazino[2,1-f][1,2]thiazin-5-yl)-5-fluoropyridin-2-yl)-3-chloro-5-fluoropicolinamide] are 78% and 7.52.
The corresponding values for `Cc1cc(Cl)cnc1C(=O)Nc1ccc(F)c([C@@]2(C)N=C(N)C(C)(C)[S@@]3(=O)=NCC(F)(F)C[C@H]23)n1` [Example 42AA, N-(6-((4aR,5R,9R)-7-amino-3,3-difluoro-5,8,8-trimethyl-9-oxido-2,3,4,4a,5,8-hexahydro-[1,4]thiazino[2,1-f][1,2]thiazin-5-yl)-5-fluoropyridin-2-yl)-5-chloro-3-methylpicolinamide] are 85% and 7.71.
For the compound `CC1(C)C(N)=N[C@](C)(c2nc(NC(=O)c3ccc(Cl)cn3)ccc2F)[C@H]2CC(F)(F)CN=[S@@]21=O` [Example 43AA, N-(6-((4aR,5R,9R)-7-amino-3,3-difluoro-5,8,8-trimethyl-9-oxido-2,3,4,4a,5,8-hexahydro-[1,4]thiazino[2,1-f][1,2]thiazin-5-yl)-5-fluoropyridin-2-yl)-5-chloropicolinamide], in test [1], the response vs control in vivo at 30 mg/kg stood at 80%. Also, the pIC50 at BACE1 is 7.25.
The corresponding values for `CC1(C)C(N)=N[C@](C)(c2nc(NC(=O)c3ncc(OC(F)F)cc3Cl)ccc2F)[C@H]2CC(F)(F)CN=[S@@]21=O` [Example 45AA, N-(6-((4aR,5R,9R)-7-amino-3,3-difluoro-5,8,8-trimethyl-9-oxido-2,3,4,4a,5,8-hexahydro-[1,4]thiazino[2,1-f][1,2]thiazin-5-yl)-5-fluoropyridin-2-yl)-3-chloro-5-(difluoromethoxy)-picolinamide] are 85% and 7.58.
The corresponding values for `Cc1cc(C#N)cnc1C(=O)Nc1ccc(F)c([C@@]2(C)N=C(N)C(C)(C)[S@@]3(=O)=NCC4(CC4)C[C@H]23)n1` [Example 48AA, N-(6-((4aR,5R,9R)-7-amino-5,8,8-trimethyl-9-oxido-4,4a,5,8-tetrahydro-2H-spiro[[1,4]thiazino[2,1-f][1,2]thiazine-3,1′-cyclopropan]-5-yl)-5-fluoropyridin-2-yl)-5-cyano-3-methylpicolinamide] are 61% and 9.52.
For the compound `CC1(C)C(N)=N[C@](C)(c2nc(NC(=O)c3ncc(C#N)cc3Cl)ccc2F)[C@H]2CC3(CC3)CN=[S@@]21=O` [Example 49AA, N-(6-((4aR,5R,9R)-7-amino-5,8,8-trimethyl-9-oxido-4,4a,5,8-tetrahydro-2H-spiro[[1,4]-thiazino[2,1-f][1,2]thiazine-3,1′-cyclopropan]-5-yl)-5-fluoropyridin-2-yl)-3-chloro-5-cyanopicolinamide], the response vs control in vivo at 30 mg/kg in test [1] is 106%. Moreover, the pIC50 on BACE1 is 10.00.
For `CC1(C)C(N)=N[C@](C)(c2nc(NC(=O)c3ncc(OC(F)F)cc3Cl)ccc2F)[C@H]2CC3(CC3)CN=[S@@]21=O` [Example 50AA, N-(6-((4aR,5R,9R)-7-amino-5,8,8-trimethyl-9-oxido-4,4a,5,8-tetrahydro-2H-spiro[[1,4]thiazino[2,1-f][1,2]thiazine-3,1′-cyclopropan]-5-yl)-5-fluoropyridin-2-yl)-3-chloro-5-(difluoromethoxy)picolinamide], the response vs control in vivo at 30 mg/kg in test [1] amounted to 117%. Also, on BACE1, the pIC50 was 7.80.
